Data: patent US20030153618A1, “Treatment and prevention of herpes simplex infections” (priority 1999, published 2003)

Tests used:
[1] = system: HSV, Type II; test: Direct plaque-forming unit (PFU) count in BSC cells in defined media with set lysine (or derivative):arginine ratio; type: cell-based; settings: average of three tests
Protocol: Absorbed virons were absorbed in susceptible cells in chemically defined media and the number of plaques made were counted. (See Davis, B. D., et al., Microbiology, 2nd Ed., Harper & Row, 1973, Part V, and sources cited therein for procedural details and discussion of the plaque method.)
The cell line chosen was green monkey kidney cells (BSC) that have been passed greater than 41 times. […] The virons were added to a confluent lawn of BSC cells and allowed to absorb at 25° C. for one hour. The unabsorbed virons and the media were removed by washing three times in PBS. […] The control media contained a lysine/arginine ratio of 1:1. The plaques were counted when easily readable. Flasks are done in triplicate.

[2] = system: Herpes simplex II virus; test: Back titration plaque assay: PFU counts at stated amounts of compound under test and arginine; type: cell-based, Herpes simplex II virus (BSC cells)
Protocol: The following experiments were conducted by back titration: Herpes simplex II virus from laboratory stocks was used. BSC cells were grown to confluence in Eagles medium with 15% fetal calf serum, 150 units per milliliter of penicillin and 100 micrograms per milliliter of streptomycin. The cultures were inoculated with 500 PFU of HS II. The virons were allowed to absorb for one hour at 25° C. The tissue cultures were then washed three times with sterile PBS to remove excess media and non-absorbed virons. The cells were then incubated at 37° C. until four-plus cytopathic effects were observed. The cells were then disrupted by slow freeze-thaw two times. The suspension was then clarified by slow speed centrifugation at 4° C. The supemanant suspension was then added to confluent BSC cultures. After one hour absorption, the cells were washed with PBS twice. The cells were overlaid in defined reagent (in triplicate) Eagles media in noble agar. The cells were then incubated at 37° C. until the plaques were easily counted, usually 40 t 72 hours. the cells were then washed two times with PBS and then fixed with 10% H2CO and a 2% sodium acetate. The cells were then stained in 0.1% crystal violet in ethanol. In the tables which follow the concentration of the compound to be tested, in micrograms per milliliter, is listed across the top of the table and the concentration of arginine in micrograms per milliliter is listed down the left side of the table, the count of plaque-forming units being shown in the matrix.

[3] = compound 10 μg/ml, arginine 0 μg/ml
[4] = compound 10 μg/ml, arginine 2.5 μg/ml
[5] = compound 10 μg/ml, arginine 5.0 μg/ml
[6] = compound 10 μg/ml, arginine 7.5 μg/ml
[7] = compound 10 μg/ml, arginine 10 μg/ml
[8] = compound 10 μg/ml, arginine 15 μg/ml
[9] = compound 10 μg/ml, arginine 20 μg/ml
[10] = compound 10 μg/ml, arginine 25 μg/ml
[11] = compound 25 μg/ml, arginine 0 μg/ml
[12] = compound 25 μg/ml, arginine 2.5 μg/ml
[13] = compound 25 μg/ml, arginine 5.0 μg/ml
[14] = compound 25 μg/ml, arginine 7.5 μg/ml
[15] = compound 25 μg/ml, arginine 10 μg/ml
[16] = compound 25 μg/ml, arginine 15 μg/ml
[17] = compound 25 μg/ml, arginine 20 μg/ml
[18] = compound 25 μg/ml, arginine 25 μg/ml
[19] = compound 50 μg/ml, arginine 0 μg/ml
[20] = compound 50 μg/ml, arginine 2.5 μg/ml
[21] = compound 50 μg/ml, arginine 5.0 μg/ml
[22] = compound 50 μg/ml, arginine 7.5 μg/ml
[23] = compound 50 μg/ml, arginine 10 μg/ml
[24] = compound 50 μg/ml, arginine 15 μg/ml
[25] = compound 50 μg/ml, arginine 20 μg/ml
[26] = compound 50 μg/ml, arginine 25 μg/ml
[27] = compound 100 μg/ml, arginine 0 μg/ml
[28] = compound 100 μg/ml, arginine 2.5 μg/ml
[29] = compound 100 μg/ml, arginine 5.0 μg/ml
[30] = compound 100 μg/ml, arginine 7.5 μg/ml
[31] = compound 100 μg/ml, arginine 10 μg/ml
[32] = compound 100 μg/ml, arginine 15 μg/ml
[33] = compound 100 μg/ml, arginine 20 μg/ml
[34] = compound 100 μg/ml, arginine 25 μg/ml
[35] = compound 200 μg/ml, arginine 0 μg/ml
[36] = compound 200 μg/ml, arginine 2.5 μg/ml
[37] = compound 200 μg/ml, arginine 5.0 μg/ml
[38] = compound 200 μg/ml, arginine 7.5 μg/ml
[39] = compound 200 μg/ml, arginine 10 μg/ml
[40] = compound 200 μg/ml, arginine 15 μg/ml
[41] = compound 200 μg/ml, arginine 20 μg/ml
[42] = compound 200 μg/ml, arginine 25 μg/ml
[43] = compound 300 μg/ml, arginine 0 μg/ml
[44] = compound 300 μg/ml, arginine 2.5 μg/ml
[45] = compound 300 μg/ml, arginine 5.0 μg/ml
[46] = compound 300 μg/ml, arginine 7.5 μg/ml
[47] = compound 300 μg/ml, arginine 10 μg/ml
[48] = compound 300 μg/ml, arginine 15 μg/ml
[49] = compound 300 μg/ml, arginine 20 μg/ml
[50] = compound 300 μg/ml, arginine 25 μg/ml
[51] = compound 400 μg/ml, arginine 0 μg/ml
[52] = compound 400 μg/ml, arginine 2.5 μg/ml
[53] = compound 400 μg/ml, arginine 5.0 μg/ml
[54] = compound 400 μg/ml, arginine 7.5 μg/ml
[55] = compound 400 μg/ml, arginine 10 μg/ml
[56] = compound 400 μg/ml, arginine 15 μg/ml
[57] = compound 400 μg/ml, arginine 20 μg/ml
[58] = compound 400 μg/ml, arginine 25 μg/ml
[59] = compound 500 μg/ml, arginine 0 μg/ml
[60] = compound 500 μg/ml, arginine 2.5 μg/ml
[61] = compound 500 μg/ml, arginine 5.0 μg/ml
[62] = compound 500 μg/ml, arginine 7.5 μg/ml
[63] = compound 500 μg/ml, arginine 10 μg/ml
[64] = compound 500 μg/ml, arginine 15 μg/ml
[65] = compound 500 μg/ml, arginine 20 μg/ml
[66] = compound 500 μg/ml, arginine 25 μg/ml

Measured: P.F.U. Count

CC(N)CCCCC(N)C(=O)O (stereo not shown) [drawing 15]
<5: [1]; Compound Ratio to Arginine 10:1 | [1]; Compound Ratio to Arginine 100:1

NCCCCCC(N)C(=O)O (stereo not shown) [drawing 17]
79: [2]; [23]
3.2 × 10^3: [2]; [33]
68: [2]; [41]
654: [2]; [42]
290: [2]; [7]
6.6 × 10^4: [2]; [25]
2.8 × 10^5: [2]; [9] | [2]; [10]
4.2 × 10^3: [2]; [16]
276: [2]; [24]
6.6 × 10^3: [2]; [34]
799: [2]; [8]
2.6 × 10^5: [2]; [17]
3.7 × 10^3: [2]; [15]
4 × 10^5: [2]; [18]
3.6 × 10^4: [2]; [26]
0: [2]; [3] | [2]; [4] | [2]; [5] | [2]; [6] | [2]; [11] | [2]; [12] | [2]; [13] | [2]; [14] | [2]; [19] | [2]; [20] | [2]; [21] | [2]; [22] | [2]; [27] | [2]; [28] | [2]; [29] | [2]; [30] | [2]; [31] | [2]; [32] | [2]; [35] | [2]; [36] | [2]; [37] | [2]; [38] | [2]; [39] | [2]; [40] | [2]; [43] | [2]; [44] | [2]; [45] | [2]; [46] | [2]; [47] | [2]; [48] | [2]; [49] | [2]; [50] | [2]; [51] | [2]; [52] | [2]; [53] | [2]; [54] | [2]; [55] | [2]; [56] | [2]; [57] | [2]; [58] | [2]; [59] | [2]; [60] | [2]; [61] | [2]; [62] | [2]; [63] | [2]; [64] | [2]; [65] | [2]; [66]

CC(N)CCCCC(N)C(=O)O (stereo not shown) [drawing 18]
1.6 × 10^3: [2]; [34]
2.0 × 10^5: [2]; [17]
1.6 × 10^4: [2]; [25]
3.7 × 10^3: [2]; [15]
79: [2]; [23]
276: [2]; [24]
4.2 × 10^3: [2]; [16]
179: [2]; [56]
1.1 × 10^4: [2]; [26]
1.7 × 10^3: [2]; [42]
2.1 × 10^5: [2]; [9] | [2]; [18]
0: [2]; [3] | [2]; [4] | [2]; [5] | [2]; [6] | [2]; [11] | [2]; [12] | [2]; [13] | [2]; [14] | [2]; [19] | [2]; [20] | [2]; [21] | [2]; [22] | [2]; [27] | [2]; [28] | [2]; [29] | [2]; [30] | [2]; [31] | [2]; [32] | [2]; [35] | [2]; [36] | [2]; [37] | [2]; [38] | [2]; [39] | [2]; [40] | [2]; [43] | [2]; [44] | [2]; [45] | [2]; [46] | [2]; [47] | [2]; [48] | [2]; [51] | [2]; [52] | [2]; [53] | [2]; [54] | [2]; [55] | [2]; [59] | [2]; [60] | [2]; [61] | [2]; [62] | [2]; [63] | [2]; [64] | [2]; [65] | [2]; [66]
46: [2]; [8]
2.8 × 10^5: [2]; [10]
310: [2]; [57]
163: [2]; [49]
1.0 × 10^3: [2]; [33] | [2]; [50]
760: [2]; [41]
610: [2]; [7]
140: [2]; [58]
